Positions of bridges follow the written chain, without caps; N, C: chain ends. Non-standard residues stand in square brackets, D forms with d. Residues, ends and D or L forms follow the SMILES beside them. *: point of attachment. Ileψ(thiazoline)Cys = CC[C@H](C)[C@H](N)C1=N[C@H](C(=O)*)CS1; dOrn = NCCC[C@@H](N)C(=O)O
Experiments:
[1] = system: C. perfringens; type: cell-based, Clostridium perfringens; settings: TSA-thioglycolate broth, 250 μL of 2% w/v, overnight, anaerobic
[2] = system: C. perfringens; type: cell-based, Clostridium perfringens; settings: FIG. 2

CC[C@H](C)[C@H](N)C1=N[C@H](C(=O)N[C@@H](CC(C)C)C(=O)N[C@H](CCC(=O)O)C(=O)N[C@H](C(=O)N[C@H]2CCCCNC(=O)[C@H](CC(N)=O)NC(=O)[C@@H](CC(=O)O)NC(=O)[C@H](Cc3cnc[nH]3)NC(=O)[C@@H](Cc3ccccc3)NC(=O)[C@H]([C@@H](C)CC)NC(=O)[C@@H](CCCN)NC2=O)[C@@H](C)CC)CS1 [Bacitracin] ({Ileψ(thiazoline)Cys}-L[dE]IK[dOrn]I[dF]H[dD]N; lactam 4-C)
inhibition of C. perfringens growth (counts) [1]: complete inhibition
inhibition of the growth of C. perfringens, crop assay ([2]; crop supernatant pH 5.34, 250 μL of 2% w/v, 24 h): complete inhibition
reduction of C. perfringens, ileal assay (in words) ([2]; ileal supernatant pH 7.01, 24 h): almost complete reduction
effectiveness against C. perfringens, proventricular assay ([2]; proventricular supernatant pH 2.54, 250 μL of 2% w/v, 24 h): not effective
